The record followed here is ChEMBL document CHEMBL1201862, “PubChem BioAssay data set” (2004).

Structures are written as SMILES.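 Method: 48-hour compound exposure of cells in 96-well plates, five concentrations, linear interpolation of endpoints. GI50 is the concentration that inhibits growth by half.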 Calls of active or inactive are those of the source. Rule as the data show it: active = GI50 up to about 1.1 µM and inactive = higher.

Some test systems named below: ACHN; BT-549; CAKI-1; DLD-1; DU-145; Hs-578T; K562; KM12; LOX IMVI; MDA-MB-435; Malme-3M; NCI-H226; NCI-H460; OVCAR-3; SF-295; SN12C; SNB-19; UACC-62; SK-MEL-2.
Holding throughout (experiment): DTP human tumour cell line panel, 48 h

In general, GI50 refers to the concentration at which growth is held to half of that of the control. As to `Cc1ccc(NC(=O)NC(=O)c2ccc([N+](=O)[O-])cc2[N+](=O)[O-])cc1Oc1ncc(Cl)cn1`, the GI50 in the assay on ACHN was 1.33 µM (inactive); in the assay with BT-549 it was 17.9 µM (inactive); in the assay with CAKI-1 it was 0.479 µM (active); in the assay on DLD-1 it was 0.421 µM (active); in the assay on DU-145, 731 nM (active); with Hs-578T it was 50 nM (active). In addition, the GI50 in the assay with K562 was 0.275 µM (active); with KM12, 0.252 µM (active); in the assay on LOX IMVI, 0.637 µM (active); in the assay with MDA-MB-435, 63 nM (active); in the assay with Malme-3M it was 0.0925 µM (active); with NCI-H226, 0.449 µM (active). Besides, the GI50 with NCI-H460 was 0.338 µM (active); in the assay with OVCAR-3, 0.355 µM (active); in the assay with SF-295, 0.406 µM (active); with SN12C it was 0.578 µM (active); with SNB-19 it was 0.48 µM (active); in the assay with UACC-62 it was 0.229 µM (active).

As to `CCOC(=O)C(Cc1ccccc1)NC(=O)c1nc[nH]c1/N=N/N(C)C` (stereo not drawn), the GI50 in the assay on ACHN, in the assay on CAKI-1, in the assay with DLD-1, in the assay on K562, in the assay with KM12 and in the assay on LOX IMVI was > 100 µM (inactive) throughout. Besides, the GI50 in the assay on Malme-3M, with NCI-H226, in the assay with NCI-H460, in the assay on OVCAR-3, with SF-295 and with SK-MEL-2 was > 100 µM (inactive) each time. Moreover, the GI50 in the assay on SN12C, in the assay on SNB-19 and with UACC-62 was > 100 µM (inactive) each time.
